Tests used:
[1] = test system: C57BL/6 Sperm; experiment: Post-thaw motility of mouse sperm (IVOS computerized semen analysis); type: cell-based; conditions: for IVF Fit: motility of at least 5% is required to achieve fertilization in IVF
Protocol: To determine the concentration, motility, and progressive motility of “freshly-collected” sperm, the sperm is typically diluted 1:20 in either phosphate buffered saline or Cooks Mouse Vitro Fert (Cook Australia; Queensland, Australia; (Quinn et al., 1995)). To assess thawed sperm, sperm is incubated in IVF medium for an hour, at a dilution of 1:50 in the IVF drop. It is then loaded into a Hamilton Thom IVOS computerized semen analyzer (Hamilton Thom, Beverly, Mass.). For measurement, the calibration parameters are set as follows: • Apply Sort: 2 • Frames acquired: 30 • Frame rate: 60 Hz • Minimum contrast: 30 • Minimum Cell Size: 4 pixels • Minimum Static Contrast: 15 • Straightness (STR), Threshold: 50% • Low VAP Cutoff: 10.0 μm/s • Medium VAP Cutoff: 50.0 μmis • Low VSL Cutoff: 0.0 grids • Head Size, Non-Motile: 13 pixels • Head Intensity, Non-Motile: 75 • Static Head Size: 0.57 to 2.91 • Static Head Intensity: 0.14 to 1.84 • Static Elongation: 0 to 87 • Slow Cells Motile: YES • Magnification: 0.82 • Video Source Camera • Video Frequency: 60 • Bright Field No • Brightness for LED: 2663 • Brightness for Ident: 3000 • Temperature, Set: 37° C.
If the compound is capable of reducing ROS at the tested concentration, then its effect on sperm motility and fertilization is tested. While the sperm motility assay is a helpful fast screening tool in the case of mouse, this assay is not required for mouse and one can perform only the IVF assay in the case of mouse. For other species, e.g. bovine, the sperm motility assay together with the fluorescence assay is sufficient. The sperm motility assay can be done either with fresh or cryopreserved sperm. For example, the motility can be determined as described in Example 6 (Determination of Sperm Concentration and Motility), using an IVOS instrument. Briefly, C57BL/6 sperm were diluted 1:50 in pre-warmed and gassed mouse vitro fert (Cook's; Spencer, Ind.) under light mineral oil. The samples were incubated for an hour at 37° C., in a humidified atmosphere of 5% CO2, 5% O2 and 90% nitrogen in a K-MINC-1000 bench top incubator (Cook's; Spencer, Ind.). After incubation, the sperm were drawn into 0.1×2.0 mm I.D. tubes (VitroCom Inc. Mt Lks. N.J.) using capillary action and 3 manually selected fields per sample were analyzed for motility using the Hamilton Thorn (Beverly, Mass.) integrated visual optics system (IVOS) for computerized semen analysis. Applicants have shown that sperm frozen in CPM containing no free radical scavenger, 0.477 mM MTG, 0.1 mM DTT, 1 mM DTT, 5 mM DTT, 20 mM DTT, 0.5 mM GSH, 1 mM GSH, 5 mM GSH or 50 mM GSH can be assessed for motility and that motility of at least 5% is required to achieve fertilization in IVF.

[2] = test system: reactive oxygen species within cryopreserved mouse sperm; experiment: Intracellular reactive oxygen species by CM-H2DCFDA dye and flow cytometry after tert-butyl hydroperoxide challenge; type: cell-based; conditions: for level of reactive oxygen species within cryopreserved mouse sperm (relative fluorescence): C57BL/6 sperm, diluted 1:1 with solution supplemented with 954 mM MTG, 1 mM GSH or 2 mM DTT before freezing, FIGS. 7A and 7B
Protocol: Sperm cryopreserved in the presence and absence of the free radical scavenger, the reducing agent monothioglycerol (MTG), are loaded with the green fluorescent dye CM-H2DCFDA to measure intracellular reactive oxygen species. The sperm are challenged with varying levels of Tert-Butylhydrogen peroxide to induce oxidative damage and green fluorescence is measured using flow cytometry.
For example, the capability to reduce ROS can be tested by a dye/sperm method as described in Example 4 and also see publications by Nelid et al 2006 and Guthrie and Welch 2006. Either fresh or cryopreserved sperm can be used in this assay. For example, sperm collected from the vas deferens and epididymis of two C57BL/6J mice into 1 mL of a solution containing 3% skim milk (w/v; BD Diagnostics; cat #232100) and 18% raffinose (w/v; Sigma; cat #R7630). A fraction of the collected sperm was diluted 1:1 in the same skim milk raffinose solution while another fraction was diluted 1:1 using the skim milk raffinose solution supplemented with […] monothioglycerol (MTG; Sigma Aldrich; cat #M6145). Another set of C57BL/6J males was used to collect sperm and dilute in the skim milk raffinose solution with 1 mM glutathione (GSH; Sigma Aldrich; cat #G6013) or 2 mM dithiothreitol (DTT; Sigma Aldrich; cat #646563). The sperm was cryopreserved as described in Example 1 and stored in liquid nitrogen for at least 24 hours.
To determine if MTG, GSH or DTT can act as a free radical scavenger, the sperm were thawed and loaded with the green fluorescent dye 5-(and-6)-chloromethyl-2′,7′-dichlorodihydrofluorescein diacetate (CM-H2DCFDA; Invitrogen C6827). This dye is a cell-permeant indicator for reactive oxygen species that is nonfluorescent until removal of the acetate groups by intracellular esterases and oxidation occurs within the cell. The emission of fluorescence correlates with ROS generation as a result of DCFH oxidation. To load the sperm, at least 150 μL of sperm were thawed and diluted 1:1 in a sperm incubation media described by Bath et al. ((Bath 2003); 123 mM NaCl; 4.7 mM KCl; 0.2 mM MgSO4.7H2O; 10 mM;NaHCO3 21 mM HEPES; 0.33 mM sodium pyruvate; 4.6 mM glucose; 100 IU/mL penicillin G; 1.33 mg/mL BSA). The lyophilized dye was resuspended in dimethylsulfoxide to a concentration of 432.5 μM and then added to the cells, such that the final dye concentration was 40 μM. […] The samples were loaded onto either a FACScan (BD Biosciences; Franklin Lakes, N.J.) or FACSCalibur (BD Biosciences; Franklin Lakes, N.J.) flow cytometer and the green fluorescence was measured on at about 5,000 viable sperm. […]

[3] = C57BL/6 sperm frozen in CPM containing 1 mM free radical scavenger
[4] = C57BL/6 sperm frozen in CPM containing 5 mM free radical scavenger

With O[C@H](CS)[C@H](O)CS (racemic) [DTT, dithiothreitol] the “IVF Fit” value ([1]; 0.1 mM) was “yes”, the “IVF Fit” value ([1]; 1 mM) was “yes” and the “IVF Fit” value ([1]; 5 mM) was “yes”. The “IVF Fit” value ([1]; 20 mM) was “no”, the “Average Post Thaw Motility” value ([1]; C57BL/6 sperm frozen in CPM containing 0.1 mM free radical scavenger) was 24.6% and the “Average Post Thaw Motility” value [1, 3] was 34%. The “Average Post Thaw Motility” value [1, 4] was 17.6%, the “Average Post Thaw Motility” value ([1]; C57BL/6 sperm frozen in CPM containing 20 mM free radical scavenger) was 1.6% and the “level of reactive oxygen species within cryopreserved mouse sperm (relative fluorescence)” value (shortened to “level … (relative fluorescence)”) [2] was “limited the level of ROS”.
N[C@@H](CCC(=O)N[C@@H](CS)C(=O)NCC(=O)O)C(=O)O [GSH, reduced glutathione] was tested, and the “IVF Fit” value ([1]; 0.5 mM) was “yes”, the “IVF Fit” value ([1]; 1 mM) was “yes” and the “IVF Fit” value ([1]; 5 mM) was “yes”. The “IVF Fit” value ([1]; 50 mM) was “no”, the “Average Post Thaw Motility” value ([1]; C57BL/6 sperm frozen in CPM containing 0.5 mM free radical scavenger) was 32% and the “Average Post Thaw Motility” value [1, 3] was 25.3%. For the same compound, the “Average Post Thaw Motility” value [1, 4] was 41.67%, the “Average Post Thaw Motility” value ([1]; C57BL/6 sperm frozen in CPM containing 50 mM free radical scavenger) was 0.6% and the “level … (relative fluorescence)” value [2] was “limited the level of ROS”.
In the case of OCC(O)CS (stereo not shown) [MTG, monothioglycerol], the “IVF Fit” value ([1]; 0.477 mM) is reported as “yes”, the “Average Post Thaw Motility” value ([1]; C57BL/6 sperm frozen in CPM containing 0.477 mM free radical scavenger) is reported as 16% and the “level … (relative fluorescence)” value [2] is reported as “limited the level of ROS”. For the same compound, the “ROS in cryopreserved sperm (green fluorescence)” value ([2]; sperm from C57BL/6J (B6) and BALB/cByJ (BALB/cBy) mice, FIG. 3) was “reduces the ROS”.

Source: patent publication US8420307B2, “Sperm cryoprotective media” (The Jackson Laboratory, priority 2006, dated 2013)
